Results: patent US7888357B2, “Anti-inflammatory and protein kinase inhibitor compositions and related methods for downregulation of detrimental cellular responses and inhibition of cell death” (Northwestern University, priority 2001, dated 2011)

Key:
BV-2 microglial cells = assay: Cell-based screen for inhibition of LPS-stimulated NO release (Griess assay); parameters: species or system murine; details: LPS-stimulated BV-2 cells, 24 hr, nitrite in conditioned media
Method: FIG. 1. Cell-based screen for inhibition of LPS-stimulated NO release. […] Inhibition is expressed as percent control, where the control is the NO accumulation from cells stimulated with LPS alone.
The rationale for using BV-2 cells in high throughput screening was the paucity of well-characterized human microglial cell lines, and the relevant activation responses and signaling pathways reflect those seen in human and rodent primary microglial cultures. Compounds were tested for their effects on NO accumulation in conditioned media of LPS-stimulated BV-2 cells by measurement of nitrite production by the Griess assay as a read-out for iNOS activity, as described previously. Stock solutions of compounds were prepared in dimethylsulfoxide (DMSO) or in water. When stock solutions were prepared in DMSO, control wells contained the same final concentration of DMSO as the compound-containing wells. […] Solutions of compounds for cell treatments were diluted to a 10× final concentration by dilution of stock solutions in αMEM media. The commercially available drugs tested were: compound 5 (KN93 from Alexis); compound 6 (pyrrolidinedithiocarbamate or PDTC from Sigma), compound 7 (SB203580 from Alexis Corporation), compound 8 (PD98059 from Alexis Corporation), and compound 9 (UO126 from Cell Signaling). […] Respectively, Western blots of cell lysates were done with the following antibodies: monoclonal anti-iNOS (1:1000 dilution, Transduction Labs); polyclonal anti-rat IL-1β (1:1000 dilution, R&D Systems, Inc.); monoclonal anti-glial fibrillary acidic protein (GFAP) (1:[…] dilution, Sigma); polyclonal anti-rat alioE (1:15,000 dilution) prepared as described; polyclonal anti-COX-2 (1:500 dilution) and monoclonal anti-phosphoATF2 (1:1000 dilution) from Santa Cruz Biotechnology, polyclonal anti-phosphoCREB (1:1000 dilution), and polyclonal anti-phosphop38 MAPK (1:1000 dilution). Reconstituted enzyme assays were done as described s. The sources of protein kinases were: bovine heart PKA from Promega, rat brain PKC from Calbiochem, rat CaMKII from New England Biolabs, chicken gizzard MLCK prepared as described, and a p38 MAP kinase kit containing recombinant Xenopus p38-MAPK and its human substrate from Upstate Biotechnology. The catalytic domains of these protein kinases retain a high level of amino acid sequence identity across mammalian species, consistent with the lack of documented major differences across species for the in vitro catalytic activity of a given kinase.
FIG. 4. Cell-based screen for functional effects of synthetic compounds on LPS-stimulated NO release from BV-2 cells. BV-2 cells were incubated for 24 hr with LPS (500 ng/ml) in the presence of increasing concentrations of: A) MW01-070C; B) MW01-026Z; C) MW01-118Z; D) MW01-119Z; E) MW01-051Z; F) MW01-160Z; G) MW01-196A; H) MW01-024Z; I) SB203580; J) PDTC; K) U0126; L) PD98059. The nitrite levels in conditioned media were determined. Inhibition is expressed as percentage of control values, where the control is the nitrite level in cells stimulated with LPS alone.
Compounds were tested for their effects on NO production by LPS-stimulated BV-2 cells as previously described [Mirzoeva, S., Koppal, T., Petrova, T. V., Lukas, T. J., Watterson, D. M., and Van Eldik, L. J. (1999) Brain Res. 844, 126-134]. The levels of nitrite, a stable NO metabolite, in conditioned media were determined by the Griess assay as previously described [Hu, J., Castets, F., Guevara, J. L., and Van Eldik, L. J. (1996) J. Biol. Chem. 271, 2543-2547]. Stock solutions of compounds were prepared in DMSO or in water. When stock solutions were prepared in DMSO, control wells contained the same final concentration of DMSO as the compound-containing wells. Solutions of compounds for cell treatments were diluted to a 10× final concentration by dilution of stock solutions of drugs in αMEM media.

CaMKII = biological target: T1, CaMKII (Rattus norvegicus, UniProt P11275); assay: Reconstituted enzyme assay, CaMKII; format: biochemical; details: Table 6; read-out: Inhibition CAMKII
T1 construct: purchased New England Biolabs
T1 sequence (P11275 1-325 limits assumed): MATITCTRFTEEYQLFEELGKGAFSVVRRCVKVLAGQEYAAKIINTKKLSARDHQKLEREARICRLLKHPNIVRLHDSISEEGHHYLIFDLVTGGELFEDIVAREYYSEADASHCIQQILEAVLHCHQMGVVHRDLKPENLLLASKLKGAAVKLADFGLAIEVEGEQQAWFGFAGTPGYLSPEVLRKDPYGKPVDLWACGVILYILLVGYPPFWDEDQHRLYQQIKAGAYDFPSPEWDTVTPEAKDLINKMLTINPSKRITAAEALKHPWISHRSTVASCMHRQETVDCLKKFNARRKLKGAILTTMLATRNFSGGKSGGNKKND
Method: (§1) [table] […] The rationale for using BV-2 cells in high throughput screening was the paucity of well-characterized human microglial cell lines, and the relevant activation responses and signaling pathways reflect those seen in human and rodent primary microglial cultures. Compounds were tested for their effects on NO accumulation in conditioned media of LPS-stimulated BV-2 cells by measurement of nitrite production by the Griess assay as a read-out for iNOS activity, as described previously. Stock solutions of compounds were prepared in dimethylsulfoxide (DMSO) or in water. When stock solutions were prepared in DMSO, control wells contained the same final concentration of DMSO as the compound-containing wells. […] Solutions of compounds for cell treatments were diluted to a 10× final concentration by dilution of stock solutions in αMEM media. […] Reconstituted enzyme assays were done as described s. The sources of protein kinases were: bovine heart PKA from Promega, rat brain PKC from Calbiochem, rat CaMKII from New England Biolabs, chicken gizzard MLCK prepared as described, and a p38 MAP kinase kit containing recombinant Xenopus p38-MAPK and its human substrate from Upstate Biotechnology. The catalytic domains of these protein kinases retain a high level of amino acid sequence identity across mammalian species, consistent with the lack of documented major differences across species for the in vitro catalytic activity of a given kinase.

[1] = biological target: T2, myosin light chain kinase (MLCK) (Gallus gallus, UniProt P11799); assay: Reconstituted enzyme assay, MLCK; format: biochemical, chicken; details: Table 6; read-out: Inhibition MLCK
T2 construct: chicken gizzard MLCK prepared as described; from tissue; host or cells: chicken gizzard
T2 sequence (P11799 935-1906): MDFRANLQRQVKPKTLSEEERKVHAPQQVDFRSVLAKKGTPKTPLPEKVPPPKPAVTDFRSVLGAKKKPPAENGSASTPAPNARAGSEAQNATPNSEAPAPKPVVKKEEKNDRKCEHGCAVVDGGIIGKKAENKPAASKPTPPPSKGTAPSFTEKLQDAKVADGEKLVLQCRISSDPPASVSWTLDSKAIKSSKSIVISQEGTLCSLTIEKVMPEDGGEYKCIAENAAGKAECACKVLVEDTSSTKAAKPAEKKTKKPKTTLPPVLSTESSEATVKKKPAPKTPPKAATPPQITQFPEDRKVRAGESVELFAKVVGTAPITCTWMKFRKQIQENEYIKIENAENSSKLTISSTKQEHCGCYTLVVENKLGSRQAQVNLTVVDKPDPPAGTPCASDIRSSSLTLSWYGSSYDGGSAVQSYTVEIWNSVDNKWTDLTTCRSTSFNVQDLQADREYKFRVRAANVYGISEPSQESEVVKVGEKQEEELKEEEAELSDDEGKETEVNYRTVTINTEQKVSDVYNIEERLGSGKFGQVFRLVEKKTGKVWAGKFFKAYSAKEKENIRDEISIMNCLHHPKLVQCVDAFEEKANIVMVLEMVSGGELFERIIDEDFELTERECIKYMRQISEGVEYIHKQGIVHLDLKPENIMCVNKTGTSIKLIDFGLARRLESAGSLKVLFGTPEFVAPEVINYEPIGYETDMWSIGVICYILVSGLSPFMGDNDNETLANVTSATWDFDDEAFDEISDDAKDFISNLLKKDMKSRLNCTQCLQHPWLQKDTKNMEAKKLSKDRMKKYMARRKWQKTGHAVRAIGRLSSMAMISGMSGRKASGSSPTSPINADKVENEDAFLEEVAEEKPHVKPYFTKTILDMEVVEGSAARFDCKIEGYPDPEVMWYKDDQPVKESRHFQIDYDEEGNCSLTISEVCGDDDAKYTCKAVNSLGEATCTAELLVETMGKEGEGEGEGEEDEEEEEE
Method: as §1

[2] = biological target: death associated protein kinase (DAPK) (Homo sapiens, UniProt P53355); assay: Enzyme assay, DAPK; format: biochemical; details: Table 6; read-out: Inhibition DAPK
Sequence of death associated protein kinase (DAPK) (P53355 whole entry, species assumed): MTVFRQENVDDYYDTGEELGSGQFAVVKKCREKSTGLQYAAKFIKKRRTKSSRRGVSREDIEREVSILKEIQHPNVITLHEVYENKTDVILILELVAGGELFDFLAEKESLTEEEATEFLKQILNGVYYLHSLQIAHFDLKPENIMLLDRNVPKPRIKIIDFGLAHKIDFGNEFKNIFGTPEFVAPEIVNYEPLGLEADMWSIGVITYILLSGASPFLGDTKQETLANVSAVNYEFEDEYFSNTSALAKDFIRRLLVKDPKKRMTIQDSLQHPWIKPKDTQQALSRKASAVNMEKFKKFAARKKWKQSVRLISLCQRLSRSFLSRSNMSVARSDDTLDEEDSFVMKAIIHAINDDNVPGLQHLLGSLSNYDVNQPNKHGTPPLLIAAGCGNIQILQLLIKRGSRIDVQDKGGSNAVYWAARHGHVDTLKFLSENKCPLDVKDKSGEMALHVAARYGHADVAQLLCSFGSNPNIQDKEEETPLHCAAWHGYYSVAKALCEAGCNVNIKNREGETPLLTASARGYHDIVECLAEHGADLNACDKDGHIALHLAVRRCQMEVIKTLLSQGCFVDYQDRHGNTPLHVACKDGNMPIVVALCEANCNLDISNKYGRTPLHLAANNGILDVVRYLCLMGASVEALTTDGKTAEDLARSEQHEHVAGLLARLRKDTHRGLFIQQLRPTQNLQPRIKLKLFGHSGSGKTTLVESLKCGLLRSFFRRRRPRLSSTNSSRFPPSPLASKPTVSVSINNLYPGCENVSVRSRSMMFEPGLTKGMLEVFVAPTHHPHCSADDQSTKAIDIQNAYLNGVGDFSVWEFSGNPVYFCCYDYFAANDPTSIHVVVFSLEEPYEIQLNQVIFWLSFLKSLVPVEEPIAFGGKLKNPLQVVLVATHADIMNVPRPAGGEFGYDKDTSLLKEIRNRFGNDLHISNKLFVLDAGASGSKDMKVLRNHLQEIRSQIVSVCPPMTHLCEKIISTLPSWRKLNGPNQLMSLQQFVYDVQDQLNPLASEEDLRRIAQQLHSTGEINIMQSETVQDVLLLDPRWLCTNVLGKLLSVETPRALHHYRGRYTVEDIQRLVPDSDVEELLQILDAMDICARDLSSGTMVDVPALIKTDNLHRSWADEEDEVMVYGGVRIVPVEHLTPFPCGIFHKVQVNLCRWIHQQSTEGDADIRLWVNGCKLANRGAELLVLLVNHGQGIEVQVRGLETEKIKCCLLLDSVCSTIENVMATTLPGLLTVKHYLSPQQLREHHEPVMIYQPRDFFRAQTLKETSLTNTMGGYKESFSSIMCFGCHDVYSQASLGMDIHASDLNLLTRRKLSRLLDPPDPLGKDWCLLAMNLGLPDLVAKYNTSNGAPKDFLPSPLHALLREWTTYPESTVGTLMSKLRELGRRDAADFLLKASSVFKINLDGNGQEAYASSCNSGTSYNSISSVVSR
Method: Therefore, compound MW01-026Z was selected as a starting point for variations on component A (Table 6). […] However, none of the A variations appeared to improve the activity and selectivity profile of CompoundMW01-026Z. (For purposes of illustration, only, component G was maintained throughout as an acyl moiety, while component R2 was varied as shown. All such compositions are available using the synthetic techniques described herein. Enzyme assays were conducted per procedures described elsewhere herein.) A more comprehensive structure activity relationship is summarized in Table 7, below.
With reference to the compositions of Table 3 and the enzyme assay techniques described elsewhere herein, Table 7 provides structural activity relationships observed, in accordance with this invention.

rat astrocytes = assay: Western blot of glial activation responses in rat astrocyte cultures; format: cell-based; details: LPS-stimulated rat astrocytes, 24 hr, Western blot
Method: FIG. 2. Selective effects of compound 1 (MW01-070C) on glial activation responses and gene-regulating protein kinase pathways. BV-2 cells and rat astrocytes were treated with control buffer (C) or stimulated with LPS or Aβ1-42 peptide in the presence or absence of compound 1, and cell lysates were analyzed by Western blots. (A) Astrocytes treated with LPS and compound 1 show concentration-dependent inhibition of iNOS and IL-1β production but not GFAP. (B) Astrocytes treated with A β1-42 and compound 1 (10 μM) show inhibition of iNOS and IL-1β but not apoE and COX-2. (C) BV-2 cells treated with LPS and compound 1 (10 μM) show inhibition of phosphorylated (p-) CREB but not p-p38 and p-ATF2, as assayed with antibodies that are specific for the phosphorylated forms of the proteins. Data are expressed as percent control (mean±SD; n=3 determinations).
The rationale for using BV-2 cells in high throughput screening was the paucity of well-characterized human microglial cell lines, and the relevant activation responses and signaling pathways reflect those seen in human and rodent primary microglial cultures. Compounds were tested for their effects on NO accumulation in conditioned media of LPS-stimulated BV-2 cells by measurement of nitrite production by the Griess assay as a read-out for iNOS activity, as described previously. Stock solutions of compounds were prepared in dimethylsulfoxide (DMSO) or in water. When stock solutions were prepared in DMSO, control wells contained the same final concentration of DMSO as the compound-containing wells. […] Solutions of compounds for cell treatments were diluted to a 10× final concentration by dilution of stock solutions in αMEM media. The commercially available drugs tested were: compound 5 (KN93 from Alexis); compound 6 (pyrrolidinedithiocarbamate or PDTC from Sigma), compound 7 (SB203580 from Alexis Corporation), compound 8 (PD98059 from Alexis Corporation), and compound 9 (UO126 from Cell Signaling). SB203580, U0126 and PD98059, PDTC, and KN93 are used as pathway-selective inhibitors of p38 MAPK, MEK1/2, NFκB, and CaMKII signaling pathways. Respectively, Western blots of cell lysates were done with the following antibodies: monoclonal anti-iNOS (1:1000 dilution, Transduction Labs); polyclonal anti-rat IL-1β (1:1000 dilution, R&D Systems, Inc.); monoclonal anti-glial fibrillary acidic protein (GFAP) (1:[…] dilution, Sigma); polyclonal anti-rat alioE (1:15,000 dilution) prepared as described; polyclonal anti-COX-2 (1:500 dilution) and monoclonal anti-phosphoATF2 (1:1000 dilution) from Santa Cruz Biotechnology, polyclonal anti-phosphoCREB (1:1000 dilution), and polyclonal anti-phosphop38 MAPK (1:1000 dilution). Reconstituted enzyme assays were done as described s. The sources of protein kinases were: bovine heart PKA from Promega, rat brain PKC from Calbiochem, rat CaMKII from New England Biolabs, chicken gizzard MLCK prepared as described, and a p38 MAP kinase kit containing recombinant Xenopus p38-MAPK and its human substrate from Upstate Biotechnology. The catalytic domains of these protein kinases retain a high level of amino acid sequence identity across mammalian species, consistent with the lack of documented major differences across species for the in vitro catalytic activity of a given kinase.
FIG. 5. Effects of two compounds on LPS-stimulated INOS and IL-1β production in rat astrocyte cultures. Astrocyte cultures were incubated for 24 hr with control buffer (C), LPS (100 ng/ml) alone, or LPS in the presence of increasing concentrations (0.1, 0.3, 1, 3, 10 μM) of MW01-070C (panel A) or MW01-196A (panel B). The levels of iNOS, proIL-1β, and GFAP were determined by Western blot of cell lysates.
FIG. 6. Effects of MW01-070C on astrocytes treated with various activating stimuli, and analysis of multiple activation responses. Astrocyte cultures were stimulated for 12 hr with Aβ (10 μM), S100B (0.5 μM), or LPS (100 ng/ml) in the absence (−) or presence (+) of MW01-070C (10 μM). […]

| IC50 (CaMKII) [µM] | IC50 [1] [µM] | SMILES | inhibition of NO accumulation by activated glia (BV-2 microglial cells) | IC50 [2] [µM] | further results |
| --- | --- | --- | --- | --- | --- |
| – | – | C[S+]([O-])c1ccc(-c2nc(-c3ccncc3)c(-c3ccc(F)cc3)[nH]2)cc1 (centres unmarked) [Compound 7, SB203580, reference compound] | less effective | – | – |
| – | – | COc1cccc(-c2cc(=O)c3ccccc3o2)c1N [Compound 8, PD98059, reference compound] | less effective | – | – |
| – | – | N#CC(=C(/N)Sc1ccccc1N)/C(C#N)=C(\N)Sc1ccccc1N [Compound 9, U0126, reference compound] | less effective | – | – |
| 50 to 100 | < 20 | Cc1cc(NC(=O)CCCCCCCCCCn2nc3c(cc2=N)CCc2ccccc2-3)nnc1-c1ccccc1 [MW01-008B] | – | 50 to 100 | – |
| > 100 | > 100 | Cc1ccc(NC(=O)CCCCCCCCCCn2nc3c(cc2=N)CCc2ccccc2-3)nn1 [MW01-020B] | – | > 100 | – |
| – | – | O=C(CCCCCCCCCCN1CCN(c2ncccn2)CC1)N1CCN(c2ncccn2)CC1 [MW01-024Z] | does not have any greater cellular activity than commercially available drugs and inhibitors | – | – |
| > 100 | < 20 | Cc1ccc(=N)n(CCCCCCCCCCC(=O)Nc2ccc(-c3ccccc3)nn2)n1 [MW01-031Z] | – | > 100 | – |
| – | > 100 | O=C(CCCCCCCCCNc1ccc(-c2ccccc2)nn1)Nc1ccc(-c2ccccc2)nn1 [MW01-038B] | – | > 100 | – |
| – | – | N=c1cc2c(nn1CCCCCCCC(=O)N1CCN(c3ncccn3)CC1)-c1ccccc1CC2 [MW01-051Z] | significant NO inhibition activity | – | – |
| – | > 100 | N=c1ccc(-c2ccccc2)nn1CCCCCCCC(=O)Nc1ccc(-c2ccccc2)nn1 [MW01-086B] | – | > 100 | – |
| > 100 | 20 to 50 | N=c1cc2c(nn1CCCCCCCC(=O)Nc1ccc(-c3ccccc3)nn1)-c1ccccc1CC2 [MW01-097B] | – | > 100 | – |
| > 100 | 20 to 50 | Cc1cc(=N)n(CCCCCCCCCCC(=O)Nc2ccc(-c3ccccc3)nn2)nc1-c1ccccc1 [MW01-103B] | – | 50 to 100 | – |
| – | – | N=c1cc2c(nn1CCCCCCCCCCC(=O)Nc1nnc(-c3ccccc3)c3ccccc13)-c1ccccc1CC2 [MW01-119Z] | better efficacy than established anti-inflammatory compounds like SB203580 | – | – |
| – | – | N=c1cc2c(nn1CCCCC(=O)N1CCN(c3ncccn3)CC1)-c1ccccc1CC2 [MW01-160Z] | no more active than inhibitors of the NFκB pathway (PDTC) | – | – |
| – | – | Cc1ccn(CCCCCCCCCCC(=O)N2CCN(c3ncccn3)CC2)c(=N)c1 [MW01-196-AS] | little activity | – | IL-1β production (rat astrocytes): does not show dose dependent inhibition; iNOS production (rat astrocytes): does not show dose dependent inhibition |
